Reference: ChEMBL document CHEMBL3259758, “Thiazolopyridine ureas as novel antitubercular agents acting through inhibition of DNA Gyrase B” (J Med Chem, 2013)

What was measured:
Plasma = conditions: human
physchem = conditions: octanol/water, pH 7.4
[1] = AUC in po dosed Balb/c mouse infected with Mycobacterium tuberculosis H37Rv administered via gavage for 10 days starting 3 days post-infection measured at day 9 of drug dosing; type: ADME, organism-based; conditions: plasma

Structure (SMILES)	Cp(f) (Plasma) [µM]	logD (physchem)	AUC [1] [µg·h/mL]
CCNC(=O)Nc1nc2cc(-c3ccn(CCOC)c(=O)c3)c(N[C@H]3CCOC3)nc2s1	13		
C=CCNC(=O)Nc1nc2cc(-c3cccnc3)ccc2s1	0.7	3.9	
C=CCNC(=O)Nc1nc2cc(-c3cccnc3)cnc2s1	3.2	2.9	
CCNC(=O)Nc1nc2cc(-c3cccnc3)c(N[C@H]3CCOC3)nc2s1	28	2	200
CCNC(=O)Nc1nc2cc(-c3cccnc3)c(NCC3CCOC3)nc2s1 (stereo not drawn)	40	2.7	
CCNC(=O)Nc1nc2cc(-c3ccc(F)nc3)c(OCC3CCOC3)nc2s1 (stereo not drawn)	0.6		
CCNC(=O)Nc1nc2cc(-c3ccc(C)nc3)c(OCC3CCOC3)nc2s1 (stereo not drawn)	0.9		
CCNC(=O)Nc1nc2cc(-c3cncc(OC)c3)c(OCC3CCOC3)nc2s1 (stereo not drawn)	2.5		
CCNC(=O)Nc1nc2cc(-c3cnc(C)nc3)c(OCC3CCOC3)nc2s1 (stereo not drawn)	6		
CCNC(=O)Nc1nc2cc(-c3ccc(C#N)nc3)c(NC3CCOCC3)nc2s1	6		
CCNC(=O)Nc1nc2cc(-c3cncc(OCCN(C)C)c3)c(OCC3CCOC3)nc2s1 (stereo not drawn)	11		
CCNC(=O)Nc1nc2cc(-c3cncc(OCCN4CCOCC4)c3)c(OCC3CCOC3)nc2s1 (stereo not drawn)	10		
CCNC(=O)Nc1nc2cc(-c3ccn(C)c(=O)c3)c(OCC3CCOC3)nc2s1 (stereo not drawn)	5		
CCNC(=O)Nc1nc2cc(-c3cc(C(C)C)n(C)c(=O)c3)c(OCC3CCOC3)nc2s1 (stereo not drawn)	4		
CCNC(=O)Nc1nc2cc(-c3ccn(CCOC)c(=O)c3)c(OCC3CCOC3)nc2s1 (stereo not drawn)	7		
CCNC(=O)Nc1nc2cc(-c3ccn(CCOC)c(=O)c3)c(O[C@@H]3CCOC3)nc2s1	11		
CCNC(=O)Nc1nc2cc(-c3ccn(CCN(C)C)c(=O)c3)c(OCC3CCOC3)nc2s1 (stereo not drawn)	5		
CCNC(=O)Nc1nc2cc(-c3ccn(CCN4CCOCC4)c(=O)c3)c(OCC3CCOC3)nc2s1 (stereo not drawn)	5		
